Test results as given in patent publication US7192572B2, “Compound delivery systems” (Conopco, Inc., priority 2002, dated 2007).

Experiment: cooling effect perceived on ingestion of the example compositions (microemulsion tea beverage, water ice, toothpaste)
Format: in vivo, human
Conditions: ingestion in the form of the compositions of Examples 1-3, relative to the same amount of the cooling active alone

For `COc1ccccc1N1CC=C(c2cccc([N+](=O)[O-])c2)NC1=O` [1-(2′-methoxyphenyl)-4-(3″-nitrophenyl)-1,2,3,6-tetrahydropyrimidine-2-one], which cooling effect perceived is on record?
The cooling effect perceived was “prolonged the cooling effect perceived”.

With `CC1CCC(C(C)C)C(O)C1` (centres unmarked) [menthol, 2-isopropyl-5-methyl-cyclohexanol] as the compound, how does the cooling effect perceived read?
Its cooling effect perceived is “prolonged the cooling effect perceived”.
